Measured values reported in patent US20250319107A1, “USE OF CANNABIDIOL AND CLOBAZAM IN THE TREATMENT OF CHILDHOOD-ONSET EPILEPSY SYNDROMES” (GW Research Limited, priority 2021, published 2025).

Legend:
patients with LGS or DS = experiment: Phase 3 randomized controlled trials of CBD versus placebo, adverse reactions in DS and LGS patients; assay type: in vivo, human; conditions: for Pneumonia (grouped terms), adverse reaction incidence / Pyrexia, adverse reaction incidence / Rash, adverse reaction incidence / Somnolence (grouped: somnolence, sedation), adverse reaction incidence / Weight decreased, adverse reaction incidence / Abnormal behavior, adverse reaction incidence / Aggression, adverse reaction incidence / Agitation, adverse reaction incidence / Alanine aminotransferase increased, adverse reaction incidence / Aspartate aminotransferase increased, adverse reaction incidence / Decreased appetite, adverse reaction incidence / Diarrhea, adverse reaction incidence / Drooling, adverse reaction incidence / Fatigue, adverse reaction incidence / Gamma-glutamyl transferase increased, adverse reaction incidence / Insomnia, adverse reaction incidence / Irritability, adverse reaction incidence / Lethargy, adverse reaction incidence / Liver function test increased, adverse reaction incidence: DS and LGS, 14-week treatment; for Subjects with pneumonia, %: LGS and DS; for Pneumonia incidence: controlled trials
From the text: Randomized, double-blind, parallel-group, trials of CBD versus placebo were undertaken and the adverse event experienced by the patients were collated and investigated.
In summary patients completed a 1-week screening period and a 4-week baseline period before they were randomized to receive CBD or equivalent volumes of placebo. Randomization was stratified by age.
Patients began a 4-week dose escalation period, titrating up to their assigned dose, before continuing on a stable dose of blinded investigational medicinal product (IMP) for 12 or 14 weeks.
Dose escalation for each patient was subject to the investigator's assessment of safety and tolerability. If a dose became poorly tolerated, the investigator may consider temporarily or permanently reducing the dose for the remainder of the study.
Clinic visits occurred for screening (Day-35), baseline (Day-28), randomization (Day 1) and, on Days 15 and 29 during titration and on Days 43, 57, 71 (telephone) and 85 until the end of treatment (Day 113). Safety telephone calls were completed every two days during titration, one week after the end of titration and, for patients not entering the open label extension (OLE), weekly from Visit 10 to Visit 12.
Safety and tolerability measures that were recorded included: adverse events; clinical laboratory parameters; 12-lead electrocardiogram (ECG); physical examination parameters (including height and weight); vital signs; Columbia-Suicide Severity Rating Scale (C-SSRS; 19+ years) or C-SSRS Children's (6-18 years) score, where applicable; number of inpatient hospitalizations due to epilepsy; abuse liability and effects on menstruation cycles (in females).
Table 1.1 below lists the adverse reactions that were reported in DS and LGS patients treated with CBD during the 14-week treatment period in the Phase 3 controlled trials.

mice = conditions: after administration of pro-convulsant drugs or an electric current; cited from earlier work
[1] = tested on: adult patients with generalized epilepsy; conditions: eight adult patients with generalized epilepsy; cited from earlier work
[2] = tested on: institutionalized adult patients; conditions: 200 mg/day of pure CBD; twelve institutionalized adult patients; open label; cited from earlier work
[3] = tested on: healthy adults and patients with LGS, DS, and TSC; experiment: Controlled studies, serum creatinine; assay type: in vivo, human
From the text: CBD can cause elevations in serum creatinine. The mechanism has not yet been determined. In controlled studies in healthy adults and in patients with LGS, DS, and TSC, an increase in serum creatinine of approximately 10% was observed within 2 weeks of starting CBD-OS. The increase was reversible in healthy adults. Reversibility was not assessed in studies in LGS, DS, or TSC.

[4] = All active (n = 456, includes 10 patients at 5 mg/kg/day)

Structure (SMILES): C=C(C)[C@@H]1CCC(C)=C[C@H]1c1c(O)cc(CCCCC)cc1O [CBD, cannabidiol]
- Pneumonia (grouped terms), adverse reaction incidence (patients with LGS or DS; 10 mg/kg/day (n = 139)): 9%
- Pyrexia, adverse reaction incidence (patients with LGS or DS; 10 mg/kg/day (n = 139)): 17%
- Rash, adverse reaction incidence (patients with LGS or DS; 10 mg/kg/day (n = 139)): 2%
- Somnolence (grouped: somnolence, sedation), adverse reaction incidence (patients with LGS or DS; 10 mg/kg/day (n = 139)): 26%
- Weight decreased, adverse reaction incidence (patients with LGS or DS; 10 mg/kg/day (n = 139)): 1%
- Abnormal behavior, adverse reaction incidence (patients with LGS or DS; 20 mg/kg/day (n = 307)): 3%
- Aggression, adverse reaction incidence (patients with LGS or DS; 20 mg/kg/day (n = 307)): 5%
- Agitation, adverse reaction incidence (patients with LGS or DS; 20 mg/kg/day (n = 307)): 1%
- Alanine aminotransferase increased, adverse reaction incidence (patients with LGS or DS; 20 mg/kg/day (n = 307)): 7%
- Aspartate aminotransferase increased, adverse reaction incidence (patients with LGS or DS; 20 mg/kg/day (n = 307)): 7%
- Decreased appetite, adverse reaction incidence (patients with LGS or DS; 20 mg/kg/day (n = 307)): 24%
- Diarrhea, adverse reaction incidence (patients with LGS or DS; 20 mg/kg/day (n = 307)): 21%
- Drooling, adverse reaction incidence (patients with LGS or DS; 20 mg/kg/day (n = 307)): 3%
- Fatigue, adverse reaction incidence (patients with LGS or DS; 20 mg/kg/day (n = 307)): 13%
- Gamma-glutamyl transferase increased, adverse reaction incidence (patients with LGS or DS; 20 mg/kg/day (n = 307)): 5%
- Insomnia, adverse reaction incidence (patients with LGS or DS; 20 mg/kg/day (n = 307)): 3%
- Irritability, adverse reaction incidence (patients with LGS or DS; 20 mg/kg/day (n = 307)): 5%
- Lethargy, adverse reaction incidence (patients with LGS or DS; 20 mg/kg/day (n = 307)): 6%
- Liver function test increased, adverse reaction incidence (patients with LGS or DS; 20 mg/kg/day (n = 307)): 3%
- Pneumonia (grouped terms), adverse reaction incidence (patients with LGS or DS; 20 mg/kg/day (n = 307)): 5%
- Pyrexia, adverse reaction incidence (patients with LGS or DS; 20 mg/kg/day (n = 307)): 15%
- Rash, adverse reaction incidence (patients with LGS or DS; 20 mg/kg/day (n = 307)): 5%
- Somnolence (grouped: somnolence, sedation), adverse reaction incidence (patients with LGS or DS; 20 mg/kg/day (n = 307)): 29%
- Weight decreased, adverse reaction incidence (patients with LGS or DS; 20 mg/kg/day (n = 307)): 4%
- Abnormal behavior, adverse reaction incidence (patients with LGS or DS; [4]): 2%
- Aggression, adverse reaction incidence (patients with LGS or DS; [4]): 4%
- Agitation, adverse reaction incidence (patients with LGS or DS; [4]): 1%
- Alanine aminotransferase increased, adverse reaction incidence (patients with LGS or DS; [4]): 6%
- Aspartate aminotransferase increased, adverse reaction incidence (patients with LGS or DS; [4]): 6%
- Decreased appetite, adverse reaction incidence (patients with LGS or DS; [4]): 21%
- Diarrhea, adverse reaction incidence (patients with LGS or DS; [4]): 18%
- Drooling, adverse reaction incidence (patients with LGS or DS; [4]): 2%
- Fatigue, adverse reaction incidence (patients with LGS or DS; [4]): 11%
- Gamma-glutamyl transferase increased, adverse reaction incidence (patients with LGS or DS; [4]): 4%
- Insomnia, adverse reaction incidence (patients with LGS or DS; [4]): 3%
- Irritability, adverse reaction incidence (patients with LGS or DS; [4]): 6%
- Lethargy, adverse reaction incidence (patients with LGS or DS; [4]): 5%
- Liver function test increased, adverse reaction incidence (patients with LGS or DS; [4]): 2%
- Pneumonia (grouped terms), adverse reaction incidence (patients with LGS or DS; [4]): 6%
- Pyrexia, adverse reaction incidence (patients with LGS or DS; [4]): 16%
- Rash, adverse reaction incidence (patients with LGS or DS; [4]): 4%
- Somnolence (grouped: somnolence, sedation), adverse reaction incidence (patients with LGS or DS; [4]): 29%
- Weight decreased, adverse reaction incidence (patients with LGS or DS; [4]): 3%
- Subjects with pneumonia, % (patients with LGS or DS; With CLB, 10 mg/kg/day, N1 = 85): 14.1%
- Subjects with pneumonia, % (patients with LGS or DS; With CLB, 20 mg/kg/day, N1 = 167): 7.2%
- Subjects with pneumonia, % (patients with LGS or DS; Without CLB, 20 mg/kg/day, N2 = 140): 2.9%
- Patients who developed a new laboratory-defined anaemia during the study (patients with LGS or DS; patients with LGS and DS, normal haemoglobin at baseline, later below lower limit of normal): 27%
- Discontinuation incidence for transaminase elevation (patients with LGS or DS; patients with LGS or DS): dose responsive
- Pneumonia incidence (patients with LGS or DS; with clobazam, 10 mg/kg/day CBD): 14%
- Pneumonia incidence (patients with LGS or DS; with clobazam, 20 mg/kg/day CBD): 7%
- Pneumonia incidence (patients with LGS or DS; without concomitant clobazam, 10 mg/kg/day CBD): 0%
- Pneumonia incidence (patients with LGS or DS; without concomitant clobazam, 20 mg/kg/day CBD): 3%
- Prevention of seizures (mice): able to prevent seizures
- Number of patients with a marked reduction of seizures [1]: 4
- Control of seizures [2]: ineffective
- Reversibility of the serum creatinine increase ([3]; healthy adults): reversible
- Increase in serum creatinine ([3]; within 2 weeks of starting CBD-OS, healthy adults and patients with LGS, DS, and TSC): approximately 10%
